Test results reported in PubChem BioAssay AID2060889 (Molecular Pharmacology Branch, DTP, NCI, 2025).

Tested on: LG0567-F671-PDC complex spheroids viability
Test: Anticancer human tumor LG0567-F671-PDC patient-derived lung adenocarcinoma cell line growth inhibition [RAS]
Settings: for IC50: curve of first compound; for viability, T/C: stronger effect = lower value; active = viability on the fitted dose curve at most 10% of control; inactive = the rest
Method in brief: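 Multi-cell-type spheroids: tumor cells plus HUVEC endothelial cells and mesenchymal stem cells. RAS-pathway inhibitors were combined with targeted agents, each dosed in half-log steps down from clinical Cmax, or from 10 microM when Cmax was unknown.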
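Note: spheroids exposed to compound for seven days before readout.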
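Throughout, for IC50: luminescence signal used as a proxy for viable cells.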

Nc1ccn(C2OC(CO)C(O)C2(F)F)c(=O)n1 (centres undefined) + CCn1c(-c2cccnc2C(C)OC)c2c3cc(ccc31)N1CCOC(CC(NC(=O)C(C(C)C)N(C)C(=O)C3(F)CCN(C(=O)C#CC(C)(C)N(C)C)CC3)C(=O)N3CCCC(N3)C(=O)OCC(C)(C)C2)C1
active: viability, T/C (second compound 0.3 µM, first compound 0.01 µM) 11.3% | viability, T/C (second compound 0.3 µM, first compound 0.0316 µM) 9.37% | viability, T/C (second compound 0.3 µM, first compound 0.1 µM) 9.44% | viability, T/C (second compound 0.3 µM, first compound 0.316 µM) 9.59% | viability, T/C (second compound 0.3 µM, first compound 1 µM) 10%
inactive: viability, T/C (second compound 0.000949 µM, first compound 0.00316 µM) 15.8% | viability, T/C (second compound 0.000949 µM, first compound 0.01 µM) 15.7% | viability, T/C (second compound 0.000949 µM, first compound 0.0316 µM) 14.1% | viability, T/C (second compound 0.000949 µM, first compound 0.1 µM) 14.4% | viability, T/C (second compound 0.000949 µM, first compound 0.316 µM) 15.3% | viability, T/C (second compound 0.000949 µM, first compound 1 µM) 13.8% | viability, T/C (second compound 0.003 µM, first compound 0.00316 µM) 15.6% | viability, T/C (second compound 0.003 µM, first compound 0.01 µM) 15.7% | viability, T/C (second compound 0.003 µM, first compound 0.0316 µM) 13.5% | viability, T/C (second compound 0.003 µM, first compound 0.1 µM) 14.8% | viability, T/C (second compound 0.003 µM, first compound 0.316 µM) 15.6% | viability, T/C (second compound 0.003 µM, first compound 1 µM) 11.7% | viability, T/C (second compound 0.00949 µM, first compound 0.00316 µM) 12.5% | viability, T/C (second compound 0.00949 µM, first compound 0.01 µM) 14.3% | viability, T/C (second compound 0.00949 µM, first compound 0.0316 µM) 13.6% | viability, T/C (second compound 0.00949 µM, first compound 0.1 µM) 13.2% | viability, T/C (second compound 0.00949 µM, first compound 0.316 µM) 14.1% | viability, T/C (second compound 0.00949 µM, first compound 1 µM) 14.1% | viability, T/C (second compound 0.03 µM, first compound 0.00316 µM) 12.3% | viability, T/C (second compound 0.03 µM, first compound 0.01 µM) 13.7% | viability, T/C (second compound 0.03 µM, first compound 0.0316 µM) 13.8% | viability, T/C (second compound 0.03 µM, first compound 0.1 µM) 15% | viability, T/C (second compound 0.03 µM, first compound 0.316 µM) 14% | viability, T/C (second compound 0.03 µM, first compound 1 µM) 13% | viability, T/C (second compound 0.0949 µM, first compound 0.00316 µM) 11.1% | viability, T/C (second compound 0.0949 µM, first compound 0.01 µM) 10.2% | viability, T/C (second compound 0.0949 µM, first compound 0.0316 µM) 11.4% | viability, T/C (second compound 0.0949 µM, first compound 0.1 µM) 10.1% | viability, T/C (second compound 0.0949 µM, first compound 0.316 µM) 12.1% | viability, T/C (second compound 0.0949 µM, first compound 1 µM) 11.6% | viability, T/C (second compound 0.3 µM, first compound 0.00316 µM) 10.6%
< 3.16 nM: IC50 (second compound 0.000949 µM) | IC50 (second compound 0.003 µM) | IC50 (second compound 0.00949 µM) | IC50 (second compound 0.03 µM) | IC50 (second compound 0.0949 µM) | IC50 (second compound 0.3 µM)

C=CC(=O)Nc1cc(Nc2nccc(-c3cn(C)c4ccccc34)n2)c(OC)cc1N(C)CCN(C)C + C=CC(=O)N1CCN(c2nc(OCC3CCCN3C)nc3c(F)c(-c4nc(N)cc(C)c4C(F)(F)F)c(Cl)cc23)C(C)C1
inactive: viability, T/C (second compound 0.00316 µM, first compound 0.00316 µM) 18.7% | viability, T/C (second compound 0.00316 µM, first compound 0.01 µM) 15.6% | viability, T/C (second compound 0.00316 µM, first compound 0.0316 µM) 12.6% | viability, T/C (second compound 0.01 µM, first compound 0.00316 µM) 15.1% | viability, T/C (second compound 0.01 µM, first compound 0.01 µM) 12.1% | viability, T/C (second compound 0.0316 µM, first compound 0.00316 µM) 13.3% | viability, T/C (second compound 0.0316 µM, first compound 0.01 µM) 12.7% | viability, T/C (second compound 0.1 µM, first compound 0.00316 µM) 15% | viability, T/C (second compound 0.1 µM, first compound 0.01 µM) 11.8% | viability, T/C (second compound 0.316 µM, first compound 0.00316 µM) 14% | viability, T/C (second compound 0.316 µM, first compound 0.01 µM) 11.4% | viability, T/C (second compound 1 µM, first compound 0.00316 µM) 13.3% | viability, T/C (second compound 1 µM, first compound 0.01 µM) 12.2% | viability, T/C (second compound 1 µM, first compound 0.0316 µM) 11.4%
< 3.16 nM: IC50 (second compound 0.00316 µM) | IC50 (second compound 0.01 µM) | IC50 (second compound 0.0316 µM) | IC50 (second compound 0.1 µM) | IC50 (second compound 0.316 µM) | IC50 (second compound 1 µM)
active: viability, T/C (second compound 0.00316 µM, first compound 0.1 µM) 12.6% | viability, T/C (second compound 0.00316 µM, first compound 0.316 µM) 4.81% | viability, T/C (second compound 0.00316 µM, first compound 1 µM) 3.52% | viability, T/C (second compound 0.01 µM, first compound 0.0316 µM) 10% | viability, T/C (second compound 0.01 µM, first compound 0.1 µM) 8.19% | viability, T/C (second compound 0.01 µM, first compound 0.316 µM) 4.72% | viability, T/C (second compound 0.01 µM, first compound 1 µM) 2.49% | viability, T/C (second compound 0.0316 µM, first compound 0.0316 µM) 9.76% | viability, T/C (second compound 0.0316 µM, first compound 0.1 µM) 7.26% | viability, T/C (second compound 0.0316 µM, first compound 0.316 µM) 6.15% | viability, T/C (second compound 0.0316 µM, first compound 1 µM) 2.62% | viability, T/C (second compound 0.1 µM, first compound 0.0316 µM) 9.84% | viability, T/C (second compound 0.1 µM, first compound 0.1 µM) 7.87% | viability, T/C (second compound 0.1 µM, first compound 0.316 µM) 4.28% | viability, T/C (second compound 0.1 µM, first compound 1 µM) 2.86% | viability, T/C (second compound 0.316 µM, first compound 0.0316 µM) 9.92% | viability, T/C (second compound 0.316 µM, first compound 0.1 µM) 6.96% | viability, T/C (second compound 0.316 µM, first compound 0.316 µM) 4.73% | viability, T/C (second compound 0.316 µM, first compound 1 µM) 3.38% | viability, T/C (second compound 1 µM, first compound 0.1 µM) 10.6% | viability, T/C (second compound 1 µM, first compound 0.316 µM) 4.57% | viability, T/C (second compound 1 µM, first compound 1 µM) 3.23%
